In the supplement of paper PMC10307832:

How the values were obtained:
Test in all cases: relative viability (nuclei count vs DMSO), 5 days (fraction); higher = more cells survive
NCI-H1395 = tested on: NCI-H1395
Outline: (§1)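 Nuclei were stained with Hoechst during a one-step fixation (final 0.05% Triton X-100, 1% formaldehyde, 1 ug/ml Hoechst) carried out 5 days after dosing, then counted on 4× images. The cells, lung cancer lines in 1536-well plates, had been dosed by pin tool the day after seeding with one drug alone or a fixed anchor-drug dose plus five library-drug doses (not always all listed) in √10 steps. Relative viability is the nuclei count in treated wells divided by that in vehicle wells, and each value is the median of duplicate plates.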

ChaGo-K-1 = tested on: ChaGo-K-1
Outline: as §1

NCI-H1993 = tested on: NCI-H1993
Outline: as §1

NCI-H2405 = tested on: NCI-H2405
Outline: as §1

EMC-BAC-2 = tested on: EMC-BAC-2
Outline: as §1

NCI-H1793 = tested on: NCI-H1793
Outline: as §1

NCI-H23 = tested on: NCI-H23
Outline: as §1

HCC-15 = tested on: HCC-15
Outline: as §1

LC-2-ad = tested on: LC-2-ad
Outline: as §1

NCI-H358 = tested on: NCI-H358
Outline: as §1

HCC-366 = tested on: HCC-366
Outline: as §1

NCI-H1944 = tested on: NCI-H1944
Outline: as §1

HOP-62 = tested on: HOP-62
Outline: as §1

NCI-H2228 = tested on: NCI-H2228
Outline: as §1

HCC-78 = tested on: HCC-78
Outline: as §1

HARA = tested on: HARA
Outline: as §1

COR-L23 = tested on: COR-L23
Outline: as §1

NCI-H2023 = tested on: NCI-H2023
Outline: as §1

NCI-H2126 = tested on: NCI-H2126
Outline: as §1

ABC-1 = tested on: ABC-1
Outline: as §1

SK-LU-1 = tested on: SK-LU-1
Outline: as §1

NCI-H838 = tested on: NCI-H838
Outline: as §1

## COc1cc2nccc(Oc3ccc(NC(=O)Nc4cc(C)on4)c(Cl)c3)c2cc1OC [Tivozanib] + O=C(CCCCCCC(=O)Nc1ccccc1)NO [Vorinostat] (partner 1 µM)
NCI-H1395; first compound 0.005 µM
  relative viability: 0.476
NCI-H1395; first compound 0.01581 µM
  relative viability: 0.747
NCI-H1395; first compound 0.05 µM
  relative viability: 0.932
NCI-H1395; first compound 0.1581 µM
  relative viability: 0.58
NCI-H1395; first compound 0.5 µM
  relative viability: 0.424
ChaGo-K-1; first compound 0.005 µM
  relative viability: 0.692
ChaGo-K-1; first compound 0.01581 µM
  relative viability: 0.727
ChaGo-K-1; first compound 0.05 µM
  relative viability: 0.773
ChaGo-K-1; first compound 0.1581 µM
  relative viability: 0.756
ChaGo-K-1; first compound 0.5 µM
  relative viability: 0.63
NCI-H1993; first compound 0.005 µM
  relative viability: 0.692
NCI-H1993; first compound 0.01581 µM
  relative viability: 0.579
NCI-H1993; first compound 0.05 µM
  relative viability: 0.965
NCI-H1993; first compound 0.1581 µM
  relative viability: 0.618
NCI-H1993; first compound 0.5 µM
  relative viability: 0.585
NCI-H2405; first compound 0.005 µM
  relative viability: 0.376
NCI-H2405; first compound 0.01581 µM
  relative viability: 1.03
NCI-H2405; first compound 0.05 µM
  relative viability: 1.05
NCI-H2405; first compound 0.1581 µM
  relative viability: 0.854
NCI-H2405; first compound 0.5 µM
  relative viability: 0.788
EMC-BAC-2; first compound 0.005 µM
  relative viability: 0.281
EMC-BAC-2; first compound 0.01581 µM
  relative viability: 0.548
EMC-BAC-2; first compound 0.05 µM
  relative viability: 0.5
EMC-BAC-2; first compound 0.1581 µM
  relative viability: 0.345
EMC-BAC-2; first compound 0.5 µM
  relative viability: 0.201
NCI-H1793; first compound 0.005 µM
  relative viability: 0.606
NCI-H1793; first compound 0.01581 µM
  relative viability: 0.706
NCI-H1793; first compound 0.05 µM
  relative viability: 0.778
NCI-H1793; first compound 0.5 µM
  relative viability: 0.742
NCI-H23; first compound 0.005 µM
  relative viability: 0.522
NCI-H23; first compound 0.01581 µM
  relative viability: 0.484
NCI-H23; first compound 0.05 µM
  relative viability: 0.6
NCI-H23; first compound 0.5 µM
  relative viability: 0.375
HCC-15; first compound 0.005 µM
  relative viability: 0.797
HCC-15; first compound 0.01581 µM
  relative viability: 0.896
HCC-15; first compound 0.05 µM
  relative viability: 0.857
HCC-15; first compound 0.1581 µM
  relative viability: 0.863
HCC-15; first compound 0.5 µM
  relative viability: 0.886
LC-2-ad; first compound 0.005 µM
  relative viability: 0.704
LC-2-ad; first compound 0.01581 µM
  relative viability: 0.734
LC-2-ad; first compound 0.05 µM
  relative viability: 0.694
LC-2-ad; first compound 0.1581 µM
  relative viability: 0.592
LC-2-ad; first compound 0.5 µM
  relative viability: 0.34
NCI-H358; first compound 0.005 µM
  relative viability: 0.652
NCI-H358; first compound 0.01581 µM
  relative viability: 0.761
NCI-H358; first compound 0.05 µM
  relative viability: 0.779
NCI-H358; first compound 0.1581 µM
  relative viability: 0.62
NCI-H358; first compound 0.5 µM
  relative viability: 0.37
HCC-366; first compound 0.005 µM
  relative viability: 0.333
HCC-366; first compound 0.01581 µM
  relative viability: 0.323
HCC-366; first compound 0.05 µM
  relative viability: 0.312
HCC-366; first compound 0.1581 µM
  relative viability: 0.305
HCC-366; first compound 0.5 µM
  relative viability: 0.244
NCI-H1944; first compound 0.005 µM
  relative viability: 0.443
NCI-H1944; first compound 0.01581 µM
  relative viability: 0.59
NCI-H1944; first compound 0.05 µM
  relative viability: 0.534
NCI-H1944; first compound 0.1581 µM
  relative viability: 0.5
NCI-H1944; first compound 0.5 µM
  relative viability: 0.609
HOP-62; first compound 0.005 µM
  relative viability: 0.633
HOP-62; first compound 0.01581 µM
  relative viability: 0.638
HOP-62; first compound 0.05 µM
  relative viability: 0.652
HOP-62; first compound 0.1581 µM
  relative viability: 0.376
HOP-62; first compound 0.5 µM
  relative viability: 0.434
NCI-H2228; first compound 0.005 µM
  relative viability: 0.606
NCI-H2228; first compound 0.01581 µM
  relative viability: 0.723
NCI-H2228; first compound 0.05 µM
  relative viability: 0.761
NCI-H2228; first compound 0.1581 µM
  relative viability: 0.599
NCI-H2228; first compound 0.5 µM
  relative viability: 0.626
HCC-78; first compound 0.005 µM
  relative viability: 0.408
HCC-78; first compound 0.01581 µM
  relative viability: 0.47
HCC-78; first compound 0.05 µM
  relative viability: 0.412
HCC-78; first compound 0.1581 µM
  relative viability: 0.467
HCC-78; first compound 0.5 µM
  relative viability: 0.363
HARA; first compound 0.005 µM
  relative viability: 0.422
HARA; first compound 0.01581 µM
  relative viability: 0.456
HARA; first compound 0.05 µM
  relative viability: 0.594
HARA; first compound 0.1581 µM
  relative viability: 0.563
HARA; first compound 0.5 µM
  relative viability: 0.507
COR-L23; first compound 0.005 µM
  relative viability: 0.444
COR-L23; first compound 0.01581 µM
  relative viability: 0.454
COR-L23; first compound 0.05 µM
  relative viability: 0.607
COR-L23; first compound 0.1581 µM
  relative viability: 0.33
COR-L23; first compound 0.5 µM
  relative viability: 0.311
NCI-H2023; first compound 0.005 µM
  relative viability: 0.488
NCI-H2023; first compound 0.01581 µM
  relative viability: 0.694
NCI-H2023; first compound 0.05 µM
  relative viability: 0.703
NCI-H2023; first compound 0.1581 µM
  relative viability: 0.48
NCI-H2023; first compound 0.5 µM
  relative viability: 0.441
NCI-H2126; first compound 0.005 µM
  relative viability: 0.795
NCI-H2126; first compound 0.01581 µM
  relative viability: 0.822
NCI-H2126; first compound 0.05 µM
  relative viability: 0.82
NCI-H2126; first compound 0.1581 µM
  relative viability: 0.482
NCI-H2126; first compound 0.5 µM
  relative viability: 0.729
ABC-1; first compound 0.005 µM
  relative viability: 0.694
ABC-1; first compound 0.01581 µM
  relative viability: 1.11
ABC-1; first compound 0.05 µM
  relative viability: 1.3
ABC-1; first compound 0.1581 µM
  relative viability: 0.926
ABC-1; first compound 0.5 µM
  relative viability: 0.842
SK-LU-1; first compound 0.005 µM
  relative viability: 0.796
SK-LU-1; first compound 0.01581 µM
  relative viability: 0.838
SK-LU-1; first compound 0.05 µM
  relative viability: 0.707
SK-LU-1; first compound 0.1581 µM
  relative viability: 0.6
SK-LU-1; first compound 0.5 µM
  relative viability: 0.729
NCI-H838; first compound 0.005 µM
  relative viability: 0.75
NCI-H838; first compound 0.01581 µM
  relative viability: 0.792
NCI-H838; first compound 0.05 µM
  relative viability: 0.802
NCI-H838; first compound 0.1581 µM
  relative viability: 0.746
NCI-H838; first compound 0.5 µM
  relative viability: 0.696
